Patent publication US6077822A, “Drug salts” (Dumex-Alpharma A/S, priority 1993, dated 2000)

Experiments:
[1] = increased gastric pH; cited from earlier work
[2] = cited from earlier work
[3] = dissolution, paddle method USP XXII apparatus II; type: physicochemical; details: 900 ml 0.1 N HCl; tablet with 150 mg salt; 5-60 minutes; FIG. 1
Experimental: The paddle method is used in accordance with USP XXII, p. 1579, (apparatus II), with 900 ml 0.1 N HCl. […] Samples are taken after 5, 10, 20, 30 and 60 minutes and diluted.
The samples are analyzed spectrophotometrically at 345.9 nm in a Shimadzu 160 A photometer.

Compound	effect of increased pH of the stomach on bioavailability / dissociation and absorption [1]	patients spontaneously reporting nausea and vomiting ([2]; 24/373 patients) [%]	patients reporting nausea and vomiting after questioning ([2]; 35/113 patients) [%]	frequency of nausea and vomiting relative to other antibiotics ([2]; in vivo) [fold]	release versus time compared with Vibramycin [3]
CCO.C[C@H]1c2cccc(O)c2C(=O)C2=C(O)[C@]3(O)C(=O)C(C(N)=O)=C(O)[C@@H](N(C)C)[C@@H]3[C@@H](O)[C@@H]21.C[C@H]1c2cccc(O)c2C(=O)C2=C(O)[C@]3(O)C(=O)C(C(N)=O)=C(O)[C@@H](N(C)C)[C@@H]3[C@@H](O)[C@@H]21.Cl.Cl.O [doxycyclin hyclate, doxycyclin hydrochloride (hyclate)]	independent of pH	6.4	31	3	–
Doxycyclin Sucrose-octa-O-sulphonic Acid Salt [Example 2]	–	–	–	–	delayed release characteristics are similar
C[C@H]1c2cccc(O)c2C(=O)C2=C(O)[C@]3(O)C(=O)C(C(N)=O)=C(O)[C@@H](N(C)C)[C@@H]3[C@@H](O)[C@@H]21.O [doxycyclin monohydrate]	decreases the bioavailability	–	–	–	–
